# Assay results from patent publication US12419890B2, “Administration of sumo-activating enzyme inhibitor and checkpoint inhibitors” (Takeda Pharmaceutical Company Limited, priority 2019, dated 2025).
# Columns and labels:
# [1] = system: WEHI-3 syngeneic mouse myelomonocytic leukemia-derived subcutaneous tumor; assay: WEHI-3 Study 4: mouse WEHI-3 syngeneic tumor model, individual tumor volume; assay type: in vivo; conditions: Compound I-263a 7.5 mg/kg IV BIWx3
# Protocol: WEHI-3 Study 4: WEHI-3 is a mouse myelomonocytic leukemia cell line. WEHI-3 mouse syngeneic tumor model was generated by subcutaneous inoculation with 0.1×10^6 WEHI-3 cells (cell suspension) in 13 weeks old female BALB/c mice (Jackson Laboratory, 600 Main St, Bar Harbor, ME) in the flank. When the mean tumor volume reached approximately 50 mm^3, the animals were randomized into one vehicle control and five treatment groups (n=8/group). Mice were then dosed with 20% HPbCD or Compound I-263a or anti-mouse PD-1 antibody or anti-mouse CTLA-4 antibody over a 21-day period. Tumor growth and body weight were measured twice per week during the treatment and post-treatment periods, and mice were humanely euthanized once they had reached their humane endpoint.
# (§1) Study 4: A 1.01 mg/mL stock solution of Compound I-263a was formulated weekly in 20% HPβCD and administered intravenously (IV) based on exact animal body weight on each day of treatment, using a dosing volume of 10 mL/kg body weight. Final doses received were 7.5 mg/kg. Dosing volume for Compound I-263a was 0.2 mL. […]
# (§2) Tumors were measured twice weekly using vernier calipers. Tumor volumes were calculated using standard equation: V=W^2×L/2, where V=volume, W=width, and L=length for the tumor. […] Tumor size and body weight were measured twice a week for the duration of the study. […]
# [2] = system: CT26 syngeneic mouse colon fibroblast carcinoma-derived subcutaneous tumor; assay: CT26 Study 2: mouse CT26 syngeneic tumor model, individual tumor volume; assay type: in vivo; conditions: Compound I-263a 7.5 mg/kg IV and anti-mPD-1 10 mg/kg IP, Day 0, 3, 7, 10, 14; 9 tumors/group
# Protocol: CT26 Study 2: CT26 is a mouse colon fibroblast carcinoma cell line. CT26 mouse syngeneic tumor model was generated by subcutaneous inoculation with 0.2×10^6 CT-26 cells (cell suspension) in 10 weeks old female BALB/c mice (Vital River Laboratory Animal Technology Co., Ltd., Beijing, China) in the flank. When the mean tumor volume reached approximately 40 mm^3, the animals were randomized into one vehicle control and three treatment groups (n=9/group). Mice were then dosed with 20% HPbCD or Compound I-263a or anti-mouse PD-1 antibody over a 14-day period. Tumor growth and body weight were measured twice per week during the treatment and post-treatment periods, and mice were humanely euthanized once they had reached their humane endpoint.
# as §1, with “2:” for “4:”, “0.75” for “1.01”
# as §2
structure (smiles),measurement,setting,value
"Cc1sc(C(=O)c2cncnc2N[C@@H]2C[C@H](COS(N)(=O)=O)[C@@H](O)C2)cc1[C@@H]1NCCc2ccc(Cl)cc21 [Compound I-263a, [(1R,2S,4R)-4-{[5-({4-[(1R)-7-chloro-1,2,3,4-tetrahydroisoquinolin-1-yl]-5-methyl-2-thienyl}carbonyl)pyrimidin-4-yl]amino}-2-hydroxycyclopentyl]methyl sulfamate]",effect on tumor growth,[1]; 8 tumors/group,very little effect
same,slight tumor growth delays,"[1]; delay to day 14, out of 8 implanted tumors",2
same,tumor growth inhibition relative to vehicle-treated tumors,[2],did not show any tumor growth inhibition
